The text below walks through data of patent US20260034123A1 (Cedilla Therapeutics, Inc., priority 2022, published 2026).

Assay [1] addresses CDK2/Cyclin E1 (Homo sapiens, UniProt P24941). Briefly: ADP-Glo Luminescent Kinase Assay (CDK2/E1-37C). Type of assay: biochemical. As to conditions: 0.18 nM CDK2/Cyclin E1, 100 μM ATP, Histone H1, 37° C.; read-out: ADPGLO (CDK2/E1-37C): IC50. The method in brief:
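IC50 fitted by four-parameter equation from ADP-Glo luminescence converted to % activity. Compounds were preincubated 60 min at 37 °C with enzyme, then kinase reaction ran 90 min at 37 °C with 0.18 nM enzyme, 100 μM ATP, Histone H1 ([…]), pH 7.5 HEPES, Mg2+, DTT.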
Background: ADP-Glo first removes unused ATP, then detects ADP through luciferase.

For assay [2], the system named is Kuramochi cells RB-KO. Briefly: IncuCyte Kuramochi cell proliferation assay, RB-KO. Particulars: 72 hours, cell count, batch mean. The assay is classed as cell-based. In a few lines:
(§1)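 GI50 was derived by curve-fitting DMSO-normalized fold change in nuclear count between 0 and 72 h. Counts came from images of Kuramochi cells carrying mApple-H2B. Compounds were dosed over 10 points at 1/2-log spacing from a 20 µM top concentration.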

Assay [3] deals with Kuramochi cells RB-WT. As to the kind of experiment: IncuCyte Kuramochi cell proliferation assay, RB-WT. As to conditions: 72 hours, cell count. The assay is classed as cell-based. In a few lines:
as §1

Take `CC(C)(C(=O)N1CC2(CN(C(=O)c3cnn(Cc4cc(F)c(F)cc4F)c3)C[C@H]2COCc2cccc(C3CCC(F)(F)CC3)c2C(=O)O)C1)C(F)(F)F` [I′-52, (S)-2-(4,4-difluorocyclohexyl)-6-(((2-(3,3,3-trifluoro-2,2-dimethylpropanoyl)-6-(1-(2,4,5-trifluorobenzyl)-1H-pyrazole-4-carbonyl)-2,6-diazaspiro[3.4]octan-8-yl)methoxy)methyl)benzoic acid]: the IC50 in assay [1] is no more than 0.5 µM; in assay [2], greater than 10 µM; in assay [3], 0.5 to 5 µM.

Turning to `CC(C)(C(=O)N1CC2(CN(C(=O)c3cnn(Cc4cc(F)c(F)c(F)c4)c3)C[C@H]2COCc2cccc(C3CCC(F)(F)CC3)c2C(=O)O)C1)C(F)(F)F` [I′-53], the IC50 is no more than 0.5 µM in assay [1], greater than 10 µM in assay [2] and 0.5 to 5 µM in assay [3].

Turning to `O=C(c1cnn(Cc2ccc(F)cc2)c1)N1C[C@@H](COCc2cccc(C3CCC(F)(F)CC3)c2-c2nn[nH]n2)C2(C1)CN(C(=O)C1(C(F)(F)F)CC1)C2` [I′-54, (S)-(8-(((3-(4,4-difluorocyclohexyl)-2-(2H-tetrazol-5-yl)benzyl)oxy)methyl)-2-(1-(trifluoromethyl)cyclopropane-1-carbonyl)-2,6-diazaspiro[3.4]octan-6-yl)(1-(4-fluorobenzyl)-1H-pyrazol-4-yl)methanone], the IC50 in assay [1] is no more than 0.5 µM; in assay [2] it was greater than 10 µM; in assay [3], 5 to 10 µM.

As for `O=C(c1cnn(Cc2ccc(F)cc2)c1)N1CC(COCc2cccc(C3CCC(F)(F)CC3)c2-c2noc(=O)[nH]2)C2(C1)CN(C(=O)C1(C(F)(F)F)CC1)C2` (stereo not drawn) [I′-55, 3-(2-(4,4-difluorocyclohexyl)-6-(((6-(1-(4-fluorobenzyl)-1H-pyrazole-4-carbonyl)-2-(1-(trifluoromethyl)cyclopropane-1-carbonyl)-2,6-diazaspiro[3.4]octan-8-yl)methoxy)methyl)phenyl)-1,2,4-oxadiazol-5(4H)-one], the IC50 in assay [1] is no more than 0.5 µM; in assay [2], greater than 10 µM; in assay [3], 5 to 10 µM.

`O=C(c1cnn(Cc2ccc(F)cc2)c1)N1CC(COCc2cccc(C3CCC(F)(F)CC3)c2C(=O)C(F)(F)F)C2(C1)CN(C(=O)C1(C(F)(F)F)CC1)C2` (stereo not drawn) [I′-56]: the IC50 in assay [1] is greater than 10 µM; in assay [2], greater than 10 µM; in assay [3], 0.5 to 5 µM.

Regarding `NC(=O)c1c(COC[C@@H]2CN(C(=O)c3cnn(Cc4ccccc4C(=O)O)c3)CC23CN(C(=O)C2(C(F)(F)F)CC2)C3)cccc1C1CCC(F)(F)CC1` [I′-57, (S)-2-((4-(8-(((2-carbamoyl-3-(4,4-difluorocyclohexyl)benzyl)oxy)methyl)-2-(1-(trifluoromethyl)cyclopropane-1-carbonyl)-2,6-diazaspiro[3.4]octane-6-carbonyl)-1H-pyrazol-1-yl)methyl)benzoic acid], the values for the IC50 in assay [1], in assay [2] and in assay [3] were no more than 0.5 µM, 0.5 to 5 µM and 5 to 10 µM, respectively.

As for `CC(C)(C(=O)N1CC2(CN(C(=O)c3cnn(Cc4ccc(F)c(F)c4)c3)C[C@H]2COCc2cccc(C3CCC(F)(F)CC3)c2C(=O)O)C1)C(F)(F)F` [I′-58, (S)-2-(((6-(1-(3,4-difluorobenzyl)-1H-pyrazole-4-carbonyl)-2-(3,3,3-trifluoro-2,2-dimethylpropanoyl)-2,6-diazaspiro[3.4]octan-8-yl)methoxy)methyl)-6-(4,4-difluorocyclohexyl)benzoic acid], the IC50 is no more than 0.5 µM in assay [1], greater than 10 µM in assay [2] and greater than 10 µM in assay [3].

On to `NC(=O)c1c(COC[C@@H]2CN(c3cc(C(=O)O)cc4ncsc34)CC23CN(C(=O)C2(C(F)(F)F)CC2)C3)cccc1C1CCC(F)(F)CC1` [I′-59], for which the IC50 was greater than 10 µM in assay [1], greater than 10 µM in assay [2] and 0.5 to 5 µM in assay [3].

For the molecule `O=C(O)c1c(COCC2CN(Cc3cnn(Cc4ccc(F)cc4)c3)C(=O)C23CN(C(=O)C2(C(F)(F)F)CC2)C3)cccc1C1CCC(C(F)(F)F)CC1` (stereo not drawn) [I′-60], the IC50 in assay [1], in assay [2] and in assay [3] was greater than 10 µM each time.

Consider `O=C(O)c1c(COC[C@@H]2CN(c3cc(F)c(F)c4[nH]ccc34)CC23CN(C(=O)C2(C(F)(F)F)CC2)C3)cccc1C1CCC(F)(F)CC1` [I′-61], for which the IC50 in assay [1], in assay [2] and in assay [3] was greater than 10 µM throughout.

Turning to `O=C(O)c1c(COC[C@H]2CN(c3cc(F)c(F)c4ncsc34)CC23CN(C(=O)C2(C(F)(F)F)CC2)C3)cccc1C1CCC(F)(F)CC1` [I′-62], the figures for the IC50 in assay [1], in assay [2] and in assay [3] were 0.5 to 5 µM, greater than 10 µM and greater than 10 µM, respectively.

On to `O=C(c1cnn(Cc2ccc(F)cc2)c1)N1CC(COCc2cccc(C3CCC(F)(F)CC3)c2-c2n[nH]c(=O)o2)C2(C1)CN(C(=O)C1(C(F)(F)F)CC1)C2` (stereo not drawn) [I′-63, 5-(2-(4,4-difluorocyclohexyl)-6-(((6-(1-(4-fluorobenzyl)-1H-pyrazole-4-carbonyl)-2-(1-(trifluoromethyl)cyclopropane-1-carbonyl)-2,6-diazaspiro[3.4]octan-8-yl)methoxy)methyl)phenyl)-1,3,4-oxadiazol-2(3H)-one], for which the IC50 is no more than 0.5 µM in assay [1], greater than 10 µM in assay [2] and greater than 10 µM in assay [3].

`O=C(O)c1c(COCC2CN(c3ncnc4ncsc34)CC23CN(C(=O)C2(C(F)(F)F)CC2)C3)cccc1C1CCC(F)(F)CC1` (stereo not drawn) [I′-64, 2-(4,4-difluorocyclohexyl)-6-(((6-(thiazolo[4,5-d]pyrimidin-7-yl)-2-(1-(trifluoromethyl)cyclopropane-1-carbonyl)-2,6-diazaspiro[3.4]octan-8-yl)methoxy)methyl)benzoic acid]: the IC50 in assay [1] was no more than 0.5 µM; in assay [2] it was 0.5 to 5 µM; in assay [3] it was 0.5 to 5 µM.

`CN(C)S(=O)(=O)NC(=O)c1c(COC[C@@H]2CN(C(=O)c3cnn(Cc4ccc(F)cc4)c3)CC23CN(C(=O)[C@H]2CC2(C)C)C3)cccc1C1CCC(F)(F)CC1` [I′-65, 2-(4,4-difluorocyclohexyl)-6-((((S)-2-((S)-2,2-dimethylcyclopropane-1-carbonyl)-6-(1-(4-fluorobenzyl)-1H-pyrazole-4-carbonyl)-2,6-diazaspiro[3.4]octan-8-yl)methoxy)methyl)-N—(N,N-dimethylsulfamoyl)benzamide]: the results for the IC50 in assay [1], in assay [2] and in assay [3] were no more than 0.5 µM, greater than 10 µM and greater than 10 µM, respectively.

As for `CC(C)(C(=O)N1CC2(CN(C(=O)c3cnn(Cc4ccc(F)cc4)c3)C[C@H]2COCc2cccc(-c3ccc(C(F)(F)F)s3)c2C(=O)O)C1)C(F)(F)F` [I′-66, (S)-2-(((6-(1-(4-fluorobenzyl)-1H-pyrazole-4-carbonyl)-2-(3,3,3-trifluoro-2,2-dimethylpropanoyl)-2,6-diazaspiro[3.4]octan-8-yl)methoxy)methyl)-6-(5-(trifluoromethyl)thiophen-2-yl)benzoic acid], the IC50 in assay [1] is no more than 0.5 µM; in assay [2], greater than 10 µM; in assay [3], no more than 0.5 µM.

For `COc1ccc(C2CCC(F)(F)CC2)c(C(=O)O)c1COCC1CN(C(=O)c2cnn(Cc3ccc(F)cc3)c2)CC12CN(C(=O)C1(C(F)(F)F)CC1)C2` (stereo not drawn) [I′-67], the figures for the IC50 in assay [1], in assay [2] and in assay [3] were no more than 0.5 µM, greater than 10 µM and greater than 10 µM, respectively.
